Experimental data reported in ChEMBL document CHEMBL1149135, “Aza-peptide Michael acceptors: a new class of inhibitors specific for caspases and other clan CD cysteine proteases” (J Med Chem, 2004).

Key:
Caspase-3 (Homo sapiens) = target: T1, Caspase-3 (Homo sapiens) (UniProt P42574); experiment: Compound was evaluated for potent inhibition of caspase-3
T1 sequence (whole entry): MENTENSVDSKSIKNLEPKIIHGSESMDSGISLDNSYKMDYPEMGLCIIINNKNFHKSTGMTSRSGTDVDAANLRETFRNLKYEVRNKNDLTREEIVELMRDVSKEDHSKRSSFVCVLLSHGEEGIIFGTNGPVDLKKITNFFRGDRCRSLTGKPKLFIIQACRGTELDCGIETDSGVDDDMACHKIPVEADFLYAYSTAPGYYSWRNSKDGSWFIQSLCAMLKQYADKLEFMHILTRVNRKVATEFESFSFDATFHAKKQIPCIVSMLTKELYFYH

Caspase-8 (Homo sapiens) = Caspase-8 (Homo sapiens) (UniProt Q14790); experiment: Compound was evaluated for potent inhibition of caspase-8
Caspase-8 (Homo sapiens), sequence (Q14790 217-374 limits assumed): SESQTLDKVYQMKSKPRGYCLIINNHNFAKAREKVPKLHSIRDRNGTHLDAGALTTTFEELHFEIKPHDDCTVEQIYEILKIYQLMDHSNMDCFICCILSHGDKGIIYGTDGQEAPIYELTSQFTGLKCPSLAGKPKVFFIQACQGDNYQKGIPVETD
Caspase-8 (Homo sapiens), sequence (Q14790 385-479 limits assumed): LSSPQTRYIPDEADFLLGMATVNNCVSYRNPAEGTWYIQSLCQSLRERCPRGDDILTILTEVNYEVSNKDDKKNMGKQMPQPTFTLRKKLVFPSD

Caspase-6 (Homo sapiens) = target: T2, Caspase-6 (Homo sapiens) (UniProt P55212); experiment: Compound was evaluated for potent inhibition of caspase-6
T2 sequence (whole entry): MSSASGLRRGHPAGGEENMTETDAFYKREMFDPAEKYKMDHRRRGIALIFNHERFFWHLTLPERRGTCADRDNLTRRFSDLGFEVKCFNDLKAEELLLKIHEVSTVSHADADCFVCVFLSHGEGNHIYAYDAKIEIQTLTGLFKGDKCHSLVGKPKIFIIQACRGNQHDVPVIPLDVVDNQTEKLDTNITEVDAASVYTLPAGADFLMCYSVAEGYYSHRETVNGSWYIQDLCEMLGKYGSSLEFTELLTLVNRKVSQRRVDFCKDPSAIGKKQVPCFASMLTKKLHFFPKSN

[1] = system: Lys-gingipain (Porphyromonas gingivalis); experiment: Compound was evaluated for irreversible inhibition of Lys-gingipain
[2] = system: Clostripain (Clostridium histolyticum); experiment: Compound was evaluated for irreversible inhibition of clostripain

Structure (SMILES): CC(C)C[C@H](NC(=O)OCc1ccccc1)C(=O)N[C@@H](CCC(=O)O)C(=O)N[C@H](C(=O)NN(CC(=O)O)C(=O)/C=C/C(=O)OCc1ccccc1)[C@@H](C)O
- k2 (Caspase-3 (Homo sapiens)): 4600 M⁻¹ s⁻¹
- k2 (Caspase-8 (Homo sapiens)): 98400 M⁻¹ s⁻¹
- k2 (Caspase-6 (Homo sapiens)): 47600 M⁻¹ s⁻¹

Structure (SMILES): CCOC(=O)/C=C/C(=O)N(CCCN)NC(=O)[C@H](CC(C)C)NC(=O)OCCc1ccccc1
- k2 [1]: 927000 M⁻¹ s⁻¹
- k2 [2]: 788 M⁻¹ s⁻¹

Structure (SMILES): CC(C)C[C@H](NC(=O)OCc1ccccc1)C(=O)N[C@@H](CCC(=O)O)C(=O)N[C@H](C(=O)NN(CC(=O)O)C(=O)/C=C/C(=O)N(C)Cc1ccccc1)[C@@H](C)O
- k2 (Caspase-3 (Homo sapiens)): 6000 M⁻¹ s⁻¹
- k2 (Caspase-8 (Homo sapiens)): 169000 M⁻¹ s⁻¹
- k2 (Caspase-6 (Homo sapiens)): 10800 M⁻¹ s⁻¹

Structure (SMILES): CC(C)[C@H](NC(=O)[C@H](CCC(=O)O)NC(=O)[C@H](CC(=O)O)NC(=O)OCc1ccccc1)C(=O)NN(CC(=O)O)C(=O)/C=C/C(=O)OCc1ccccc1
- k2 (Caspase-3 (Homo sapiens)): 1.7e+06 M⁻¹ s⁻¹
- k2 (Caspase-8 (Homo sapiens)): 121000 M⁻¹ s⁻¹
- k2 (Caspase-6 (Homo sapiens)): 8470 M⁻¹ s⁻¹

Structure (SMILES): CCOC(=O)/C=C/C(=O)N(CC(=O)O)NC(=O)[C@@H](NC(=O)[C@H](CCC(=O)O)NC(=O)[C@H](CC(C)C)NC(=O)OCc1ccccc1)[C@@H](C)O
- k2 (Caspase-3 (Homo sapiens)): 5560 M⁻¹ s⁻¹
- k2 (Caspase-8 (Homo sapiens)): 237000 M⁻¹ s⁻¹
- k2 (Caspase-6 (Homo sapiens)): 18700 M⁻¹ s⁻¹

Structure (SMILES): CC(C)[C@H](NC(=O)[C@H](CCC(=O)O)NC(=O)[C@H](CC(=O)O)NC(=O)OCc1ccccc1)C(=O)NN(CC(=O)O)C(=O)/C=C/C(=O)NCc1ccccc1
- k2 (Caspase-3 (Homo sapiens)): 1.75e+06 M⁻¹ s⁻¹
- k2 (Caspase-8 (Homo sapiens)): 78200 M⁻¹ s⁻¹
- k2 (Caspase-6 (Homo sapiens)): 3210 M⁻¹ s⁻¹

Structure (SMILES): CCOC(=O)/C=C/C(=O)N(CCCCN)NC(=O)[C@H](CC(C)C)NC(=O)OCCc1ccccc1
- k2 [1]: 3.28e+06 M⁻¹ s⁻¹
- k2 [2]: 40800 M⁻¹ s⁻¹

Structure (SMILES): CCOC(=O)/C=C/C(=O)N(CC(=O)O)NC(=O)[C@@H](NC(=O)[C@H](CCC(=O)O)NC(=O)[C@H](CC(=O)O)NC(=O)OCc1ccccc1)C(C)C
- k2 (Caspase-3 (Homo sapiens)): 2.13e+06 M⁻¹ s⁻¹
- k2 (Caspase-8 (Homo sapiens)): 273000 M⁻¹ s⁻¹
- k2 (Caspase-6 (Homo sapiens)): 35600 M⁻¹ s⁻¹

Structure (SMILES): CC(C)[C@H](NC(=O)[C@H](CCC(=O)O)NC(=O)[C@H](CC(=O)O)NC(=O)OCc1ccccc1)C(=O)NN(CC(=O)O)C(=O)/C=C/C(=O)N(C)Cc1ccccc1
- k2 (Caspase-3 (Homo sapiens)): 2.64e+06 M⁻¹ s⁻¹
- k2 (Caspase-8 (Homo sapiens)): 90300 M⁻¹ s⁻¹
- k2 (Caspase-6 (Homo sapiens)): 9500 M⁻¹ s⁻¹
